Assay results: patent publication US9598393B2, “Structural variants of mycolactones for use in modulating inflammation, immunity and pain” (priority 2011, dated 2017)
Where two headings read alike, the source gives them in different places.

Assays:
[1] = test system: epithelial HeLa cell line; assay: Cytopathic activity, MTT assay (effect on global cell metabolic activity); assay type: cell-based, human; settings: for Metabolic activity (MA: mean absorbance) (A) % relative to control / IC50: HeLa cells, 48 h, MTT; for IC50: % inhibition relative to control, read-out: Metabolic activity (A): IC50 value (concentration at which the compound induces 50% of mycolactone maximal activity); for Metabolic activity (A): corresponding % of mycolactone activity (in brackets): relative to mycolactone (100%); for cytopathic activity, reduction compared to mycolactones A/B: human
Procedure: (A) The cytopathic activity of mycolactone and variants was assessed in a [3-(4,5-Dimethylthiazol-2-yl)-2,5-Diphenyltetrazolium Bromide] (MTT) assay, using the epithelial HeLa cell line (ATCC®; CCL-2) as a model. Briefly, HeLa cells were plated in 96-well plates (10^4 cells/well) in Dulbecco's Modified Eagle culture medium supplemented with 10% fetal calf serum and 2 mM L-Glutamine. After 16 h, mycolactone or variants dilutions (final concentration 0.4-8 μM) were added to the wells, and incubated with the cells for 48 h, prior to the addition of MTT at 50 μg/ml. After 4 h, culture supernatants were removed and the formed formazan crystals dissolved in dimethyl sulfoxide (DMSO) for absorbance measurement.

[2] = test system: IL-2 production by Jurkat T cells; assay: Immunosuppressive activity: activation-induced IL-2 production, ELISA; assay type: cell-based, human; settings: for Cytokine production (M.A.: mean absorbance) (C) % relative to control / IC50: Jurkat T cells; for Cytokine production (M.A.: mean absorbance) (C) % relative to control: PMA + calcium ionophore, IL-2 ELISA; for IC50: IL-2, % inhibition relative to control, read-out: Cytokine production (C): IC50 value (concentration at which the compound induces 50% of mycolactone maximal activity); for Cytokine production (C): corresponding % of mycolactone activity (in brackets): relative to mycolactone (100%)
Procedure: (C) The immunosuppressive activity of mycolactone and variants was measured on Jurkat T cells (ATCC®; TIB-152™ clone E6-1), as models of human T lymphocytes. Cells were inoculated in 96-well plates (5×10^5 cells/well in RPMI 1640 medium supplemented with 10% fetal calf serum and 2 mM L-Glutamine) then incubated with serial dilutions of the various compounds for 4 h, and stimulated for 20 h with 50 ng/ml phorbol-12-myristate-13-acetate (PMA) and 1 μg/ml calcium ionophore. The production of IL-2 was then assessed in culture supernatants by ELISA.

HeLa cell = assay: Cytotoxicity by Trypan Blue dye exclusion (cell viability); assay type: cell-based, human; settings: for cytotoxicity compared to mycolactones A/B: at 16 μM
Procedure: (B) HeLa cell death being negligible in the concentration and time frame conditions used in (A), the cytotoxicity of 16 μM mycolactone and variants was evaluated after 48 h of incubation by cell exclusion of the Trypan Blue dye. Here, one part of Trypan blue (0.4% in phosphate-buffered saline PBS) was mixed with one part cell suspension (recovered from cell culture wells by trypsin treatment). The mixture was incubated for 3 min at room temperature and unstained (viable) and stained (nonviable) cells counted separately with a hemacytometer.

[3] = test system: CD62-L receptor expression by human peripheral blood cells (PBLs); assay: T cell homing: expression of CD62-L receptor, flow cytometry; assay type: cell-based; settings: for CD62-L expression (MFI: mean fluorescence intensity) (D) % relative to control / IC50: human PBLs, 72 h; for IC50: % inhibition relative to control, read-out: CD62-L expression (D): IC50 value (concentration at which the compound induces 50% of mycolactone maximal activity); for CD62-L expression (D): corresponding % of mycolactone activity (in brackets): relative to mycolactone (100%)
Procedure: (D) The effect of mycolactone and variants on T cell homing was assessed through their inhibitory effect on the expression of CD62-L receptor by human peripheral blood cells (PBLs). Human PBLs were isolated from total blood by Ficoll density gradient centrifugation. They were incubated in 96-well plates (10^5 cells/well in RPMI 1640 medium supplemented with 10% fetal calf serum and 2 mM L-Glutamine) with mycolactone or variant for 72 h. Cells were then fixed for 20 min in 4% paraformaldehyde (PFA) and stained with an anti-CD62-L antibody coupled with phycoerythrin in a solution of PBS, BSA 0.5%, saponin 0.05%, then analysed by flow cytometry.

In the case of “2,2-difluoro-4,6,10,12-tetramethyl-8-(4-{1-[(2S)-2-[(2R,4E,7S,8S)-7-methyl-12-oxo-8-{[(2E,4E,6E,8E,10E,12S,13S,15S)-12,13,15-trihydroxy-4,6,10-trimethylhexadeca-2,4,6,8,10-pentaenoyl]oxy}-1-oxacyclododec-4-en-2-yl]propyl]-1H-1,2,3-triazol-4-yl}butyl)-1λ^5,3-diaza-2λ^4-boratricyclo[7.3.0.0^3,7]dodeca-1(12),4,6,8,10-pentaen-1-ylium [Compound 28]”, the “Metabolic activity (MA: mean absorbance) (A) % relative to control” value (“Metabolic activity … (A) % relative to control” for short) ([1]; 0.4 μM) is reported as 0%, the “Metabolic activity … (A) % relative to control” value ([1]; 4 μM) is reported as 20% and the “Metabolic activity … (A) % relative to control” value ([1]; 8 μM) is reported as 35%. For the same compound, the IC50 [1] was greater than 16 µM, the “Metabolic activity (A): corresponding % of mycolactone activity (in brackets)” value (shortened to “Metabolic activity (A): corresponding %”) [1] was less than 20% and the “Cytokine production (M.A.: mean absorbance) (C) % relative to control” value (shortened to “Cytokine production … (C) % relative to control”) ([2]; 0.4 μM) was 20%. The “Cytokine production … (C) % relative to control” value ([2]; 4 μM) was 50%, the “Cytokine production … (C) % relative to control” value ([2]; 8 μM) was 70% and the IC50 [2] was 4 µM. The “Cytokine production (C): corresponding % of mycolactone activity (in brackets)” value (“Cytokine production (C): corresponding %” for short) [2] was 2.5%.

In the case of `CC(=C/C=C/C(C)=C/[C@H](O)[C@@H](O)C[C@@H](C)O)C=C(C)/C=C/C(=O)O[C@H]1CCCC(=O)O[C@@H]([C@@H](C)C/C(C)=C/[C@@H](C)[C@H](O)C[C@@H](C)O)C/C=C/C[C@@H]1C` (racemic) [Compound 20b, (6S,7S,9E,12R)-12-[(2S,4E,6R,7R,9R)-7,9-dihydroxy-4,6-dimethyldec-4-en-2-yl]-7-methyl-2-oxo-1-oxacyclododec-9-en-6-yl(2E,4E,6E,8E,10E,12S,13S,15R)-12,13,15-trihydroxy-4,6,10-trimethylhexadeca-2,4,6,8,10-pentaenoate], the “Metabolic activity … (A) % relative to control” value ([1]; 0.4 μM) is reported as 0%, the “Metabolic activity … (A) % relative to control” value ([1]; 4 μM) is reported as 10% and the “Metabolic activity … (A) % relative to control” value ([1]; 8 μM) is reported as 15%. For the same compound, the IC50 ([1]; Homo sapiens) was 15 µM, the “cytopathic activity, reduction compared to mycolactones A/B” value [1] was 4 fold and the “Metabolic activity (A): corresponding %” value [1] was 23%. The “cytotoxicity compared to mycolactones A/B” value (HeLa cell) was “equivalent cytotoxicity”, the “Cytokine production … (C) % relative to control” value ([2]; 0.4 μM) was 20% and the “Cytokine production … (C) % relative to control” value ([2]; 4 μM) was 55%. For the same compound, the “Cytokine production … (C) % relative to control” value ([2]; 8 μM) was 92%, the IC50 ([2]; Homo sapiens) was 4 µM and the “Cytokine production (C): corresponding %” value [2] was 2.5%. For the same compound, the “CD62-L expression (MFI: mean fluorescence intensity) (D) % relative to control” value (shortened to “CD62-L expression … (D) % relative to control”) ([3]; 4 μM) was 0%, the “CD62-L expression … (D) % relative to control” value ([3]; 8 μM) was 50% and the IC50 ([3]; T-cell) was 8 µM. The “CD62-L expression (D): corresponding % of mycolactone activity (in brackets)” value (shortened to “CD62-L expression (D): corresponding %”) [3] was 0.4%.

With `C/C(=C\[C@@H](C)[C@H](O)C[C@@H](C)O)C[C@H](C)[C@H]1C/C=C/C[C@H](C)[C@@H](O)CCCC(=O)O1` [Compound 11c, (6 S,7 S,9E,12R)-12-[(2S,4E,6R,7R,9R)-7,9-dihydroxy-4,6-dimethyldec-4-en-2-yl]-6-hydroxy-7-methyl-1-oxacyclododec-9-en-2-one] the “effect on the metabolic activity of HeLa cells” value [1] was “showed inhibitory effect”, the “Metabolic activity … (A) % relative to control” value ([1]; 0.4 μM) was 0% and the “Metabolic activity … (A) % relative to control” value ([1]; 4 μM) was 30%. For the same compound, the “Metabolic activity … (A) % relative to control” value ([1]; 8 μM) was 40%, the IC50 ([1]; Homo sapiens) was 16 µM and the “Metabolic activity (A): corresponding %” value [1] was 20%. For the same compound, the cytotoxicity (HeLa cell; in the conditions tested) was “not cytotoxic”, the “inhibition of IL-2 production by lymphocytes” value [2] was “significant inhibition” and the “Cytokine production … (C) % relative to control” value ([2]; 0.4 μM) was 0%. The “Cytokine production … (C) % relative to control” value ([2]; 4 μM) was 30%, the “Cytokine production … (C) % relative to control” value ([2]; 8 μM) was 50% and the IC50 ([2]; Homo sapiens) was 8 µM. The “Cytokine production (C): corresponding %” value [2] was 1.2%, the “inhibition of CD62-L expression by lymphocytes” value [3] was “significant inhibition” and the “CD62-L expression … (D) % relative to control” value ([3]; 4 μM) was 20%. The “CD62-L expression … (D) % relative to control” value ([3]; 8 μM) was 40%, the IC50 ([3]; T-cell) was 16 µM and the “CD62-L expression (D): corresponding %” value [3] was 0.2%.

For “2,2-difluoro-8-(4-{1-[(2S)-2-[(2R,4E,7S,8S)-8-hydroxy-7-methyl-12-oxo-1-oxacyclododec-4-en-2-yl]propyl]-1H-1,2,3-triazol-4-yl}butyl)-4,6,10,12-tetramethyl-1λ^5,3-diaza-2λ^4-boratricyclo[7.3.0.0^3,7]dodeca-1(12),4,6,8,10-pentaen-1-ylium [Compound 29]”, the “Metabolic activity … (A) % relative to control” value ([1]; 0.4 μM) was 0%, the “Metabolic activity … (A) % relative to control” value ([1]; 4 μM) was 30% and the “Metabolic activity … (A) % relative to control” value ([1]; 8 μM) was 40%. For the same compound, the IC50 [1] was 16 µM, the “Metabolic activity (A): corresponding %” value [1] was 20% and the “Cytokine production … (C) % relative to control” value ([2]; 0.4 μM) was 18%. For the same compound, the “Cytokine production … (C) % relative to control” value ([2]; 4 μM) was 70%, the “Cytokine production … (C) % relative to control” value ([2]; 8 μM) was 95% and the IC50 [2] was 3 µM. For the same compound, the “Cytokine production (C): corresponding %” value [2] was 3.3%, the “CD62-L expression … (D) % relative to control” value ([3]; 4 μM) was 100% and the “CD62-L expression … (D) % relative to control” value ([3]; 8 μM) was 100%. The IC50 [3] was 2 µM and the “CD62-L expression (D): corresponding %” value [3] was 1.5%.

`CC(=C/C=C/C(C)=C/[C@H](O)[C@@H](O)C[C@H](C)O)C=C(C)/C=C/C(=O)O[C@H]1CCCC(=O)O[C@@H]([C@@H](C)C/C(C)=C/[C@@H](C)[C@H](O)C[C@@H](C)O)C/C=C/C[C@@H]1C` (racemic) [Compound 20a, (6S,7S,9E,12R)-12-[(2S,4E,6R,7R,9R)-7,9-dihydroxy-4,6-dimethyldec-4-en-2-yl]-7-methyl-2-oxo-1-oxacyclododec-9-en-6-yl(2E,4E,6E,8E,10E,12S,13S,15S)-12,13,15-trihydroxy-4,6,10-trimethylhexadeca-2,4,6,8,10-pentaenoate] was tested, and the “Metabolic activity … (A) % relative to control” value ([1]; 0.4 μM) was 0%, the “Metabolic activity … (A) % relative to control” value ([1]; 4 μM) was 10% and the “Metabolic activity … (A) % relative to control” value ([1]; 8 μM) was 30%. For the same compound, the IC50 ([1]; Homo sapiens) was 14 µM, the “cytopathic activity, reduction compared to mycolactones A/B” value [1] was 4 fold and the “Metabolic activity (A): corresponding %” value [1] was 25%. For the same compound, the “cytotoxicity compared to mycolactones A/B” value (HeLa cell) was “equivalent cytotoxicity”, the “Cytokine production … (C) % relative to control” value ([2]; 0.4 μM) was 0% and the “Cytokine production … (C) % relative to control” value ([2]; 4 μM) was 40%. For the same compound, the “Cytokine production … (C) % relative to control” value ([2]; 8 μM) was 70%, the IC50 ([2]; Homo sapiens) was 6 µM and the “Cytokine production (C): corresponding %” value [2] was 1.6%.
